Experimental findings from patent publication US10899776B2, “Antiviral and antibacteria agents based on quaternary ammonium compound complexed with boric acid and its derivatives” (B-Organic Films Corp, priority 2015, dated 2021) are described below.

Data set [1] has as its system White Spot Syndrome Virus (WSSV). Kind of data set: Challenge of shrimp L. vannamei with White Spot Syndrome Virus, survival. It counts as in vivo. Particulars: for survival rate: positive control 10%. As for the experimental part:
The virus is isolated from WSSV-infected adult L. vannamei shrimp obtained from commercial farms located in Sinaloa, Mexico in 2013. Virus stocks were purified from infected shrimp homogenates by improved differential centrifugation as described previously by Du et al, (Du, H. H., Fu, L. L., Xu, Y. X., Kil, Z. S., Xu. Z. R. 2007. Aquaculture, 262:532-534) and then stored at −80° C. For assays, the WSSV stock is serially diluted to prepare solutions containing various target copy numbers determined by competitive PCR.
A volume of 20 μL of different dilutions of the tissue homogenate (containing WSSV in 330 mM of NaCl) is injected intramuscularly in fourth or fifth abdominal segment of L. vannamei using an insulin needle. The mortality is recorded twice a day and dead shrimp are tested by PCR to highlight the presence of WSSV.
There are two control groups: • 1.
The shrimp mortality percentage is recorded daily.
Dead shrimp are recorded daily during 120 hours.

In a further data set the test system is SOD. Particulars: RT q-PCR, treated vs non-treated shrimp; feed 5 mg/g. As for the experimental part:
(§1) Primer design is performed in the online application «primer3plus» (Untergasser, A., Nijveen, H., Rao, W., Bisseling, T., Geurts, R., Leunissen, J. A. M. 2007, Nucleic Acids Research, 35: 71-74) based in the following features: 18-24 nt length; GC content 35-65% product size 80-250 bp; and ≤2 GC clamp (Wang, X. and Seed, B., 2007). The primers are evaluated in the online application «Oligo Evaluator» Sigma Aldrich™ (St' Louis, Mo.) to check thermodynamic characteristics based in self-aligned primer and primer-dimer structures. The primers selected are ≤−2 Kcal/mol and evaluated using an in silico PCR software «Primer Digital» (Kalender et al., 2011). RNA extracts used for the microarray hybridizations are converted to cDNA using promega GoScript™ Reverse Transcription System (Promega Corporation, Madison, Wis., USA) and SsoFast™ EvaGreen® Supermix (Bio-Rad, Hercules, Calif., USA) for RT-qPCR.

The next data set has as its system Toll-Like Receptor. Particulars: RT q-PCR, treated vs non-treated shrimp; feed 5 mg/g. As to the method: as §1
The test system of a further data set is white shrimp L. vannamei. Particulars: in vivo.
For data set [2] the following is noted: commercial diet supplemented 5 mg/g, fed ad libitum up to 28 days.

Regarding `C[N+](C)(C)CCOB1OB2OB(O1)OB1OB(O2)O1.[Cl-]` [choline/pentaborate complex], in data set [1] (5 mg/g in feed diets, standardized injection protocols), the “impact of WSSV infection (summary statement)” value is given as “effective in reducing impact of WSSV infection”. In addition, the survival in data set [1] (1% WSSV suspension, 96 h post-challenge, 5 mg/g feed, positive control about 35%, p<0.05) is 85%; in data set [1] (1% WSSV suspension, after 72 h, 5 mg/g feed, positive control about 65%), 95%; in data set [1] (3% WSSV suspension, after 48 hours, 5 mg/g feed, positive control about 80%), 95%. Also, the survival rate in data set [1] (3% WSSV suspension, 96 h post-challenge, 1 mg/g feed) is given as about 40%; in data set [1] (3% WSSV suspension, 96 h post-challenge, 5 mg/g feed) it was about 40%. Also, the “increase of expression of SOD gene” value in the data set on SOD is reported as “more than 200 fold”. Also, the “increase of expression of Toll-Like Receptor gene” value in the data set with Toll-Like Receptor is reported as “more than 200 fold”. The “toxicity (summary statement)” value in the data set with white shrimp L. vannamei is on record as “not toxic”. In addition, the “increment in mean weight compared with control group” value in data set [2] is on record as 20%.
